Values quoted from earlier work, collected in patent publication US20120141479A1, “Histone Deacetylase Inhibitors Sensitize Cancer Cells To Epidermal Growth Factor Inhibitors” (priority 2007, published 2012).

Tested on: E-cad
Settings: lung cancer cell lines; cited from earlier work

## CC(/C=C/C(=O)NO)=C\[C@@H](C)C(=O)c1ccc(N(C)C)cc1 [trichostatin A]
  effect of inhibiting HDAC on E-cad: activation of E-cad
